From ChEMBL document CHEMBL1155440, “1-(5-carboxyindol-1-yl)propan-2-one inhibitors of human cytosolic phospholipase A(2)alpha with reduced lipophilicity: synthesis, biological activity, metabolic stability, solubility, bioavailability, and topical in vivo activity” (J Med Chem, 2010)
Converted amounts (≈) assume the structure as drawn. The source made the active and inactive calls. The rule behind the calls is not given here.

How the values were obtained:
[1] = Inhibition of human platelet cPLA2alpha assessed as inhibition of arachidonic acid production after 60 mins by UV-reverse phase HPLC analysis; settings: 1 h
[2] = Thermodynamic solubility in sodium phosphate buffer of pH 7.4 by UV-reverse phase HPLC analysis; assay type: physicochemical
[3] = Metabolic stability in rat liver microsomes assessed as compound remaining after 30 mins by HPLC/MS analysis; assay type: ADME, Microsome; settings: read-out: Stability
[4] = Partition coefficient, log P at 5 mM by reverse phase HPLC analysis; assay type: physicochemical; settings: octanol/water
Homo sapiens = species on record: Homo sapiens; assay: Inhibition of human platelet cPLA2alpha assessed as inhibition of arachidonic acid production at 1 uM after 60 mins by UV-reverse phase HPLC analysis

| SMILES | IC50 [1] | solubility thermodynamic [2] | remaining at 0.5 h [3] | logP at 5000 µM [4] | inhibition (Homo sapiens) |
| --- | --- | --- | --- | --- | --- |
| CCCCCCCCOc1ccc(OCC(=O)Cn2ccc3cc(C(=O)O)ccc32)cc1 | 26 nM | < 3 µg/mL | 79% | 5.9 | – |
| O=C(COc1cccc(-c2ccccc2)c1)Cn1ccc2cc(C(=O)O)ccc21 | 210 nM | 16 µg/mL (≈ 41.5 µM) | 13% | 3.1 | – |
| CCCCCCCCCCOc1ccc(OCC(=O)Cn2ccc3cc(C(=O)O)ccc32)cc1 | 20 nM | < 3 µg/mL | 67% | 7.1 | – |
| COc1ccc(-c2ccc(OCC(=O)Cn3ccc4cc(C(=O)O)ccc43)cc2)cc1 | 90 nM | < 3 µg/mL | 2% | 3 | – |
| COc1cc(-c2ccccc2)ccc1OCC(=O)Cn1ccc2cc(C(=O)O)ccc21 | – | 6 µg/mL (≈ 14.4 µM) | 72% | 2.9 | inactive |
| CCCCCCOc1ccc(OCC(=O)Cn2ccc3cc(C(=O)O)ccc32)cc1 | 34 nM | 7 µg/mL (≈ 17.1 µM) | 38% | 4.6 | – |
| CCCCCCCCCOc1ccc(OCC(=O)Cn2ccc3cc(C(=O)O)ccc32)cc1 | 23 nM | < 3 µg/mL | 74% | 6.5 | – |
| O=C(COc1ccc(-c2ccccc2)cc1F)Cn1ccc2cc(C(=O)O)ccc21 | 230 nM | 5 µg/mL (≈ 12.4 µM) | 16% | 3.3 | – |
| COc1ccc2c(c1)c(CC(=O)O)c(C)n2C(=O)c1ccc(Cl)cc1 [INDOMETHACIN] | – | 246 µg/mL (≈ 688 µM) | – | 2.9 | – |
| CC(=O)c1cn(CC(=O)COc2ccc(Oc3ccccc3)cc2)c2ccc(C(=O)O)cc12 | 12 nM | 111 µg/mL (≈ 250 µM) | 41% | 2.6 | – |
| NC(=O)c1ccc2c(ccn2CC(=O)COc2ccccc2-c2ccccc2)c1 | – | < 3 µg/mL | 20% | 2.3 | inactive |
| O=C(COc1ccc(Oc2ccccc2)cc1)Cn1ccc2cc(C(=O)O)ccc21 | 36 nM | 43 µg/mL (≈ 107 µM) | 3% | 3.1 | – |
| CC(=O)c1cn(CC(=O)COc2ccc(Oc3ccc(C(F)(F)F)cc3)cc2)c2ccc(C(=O)O)cc12 | 10 nM | < 3 µg/mL | 73% | 3.5 | – |
| CC(=O)c1cn(CC(=O)COc2ccc(OCCOc3ccccc3)cc2)c2ccc(C(=O)O)cc12 | 41 nM | 34 µg/mL (≈ 69.7 µM) | 68% | 2.6 | – |
| O=C(COc1ccc(-c2cccc(Cl)c2)cc1)Cn1ccc2cc(C(=O)O)ccc21 | 19 nM | < 3 µg/mL | 31% | 3.8 | – |

Next, values leading:

| IC50 [1] | solubility thermodynamic [2] | remaining at 0.5 h [3] | logP at 5000 µM [4] | inhibition (Homo sapiens) | SMILES |
| --- | --- | --- | --- | --- | --- |
| 27 nM | < 3 µg/mL | 46% | 3.9 | – | O=C(COc1ccc(-c2ccc(Cl)cc2)cc1)Cn1ccc2cc(C(=O)O)ccc21 |
| 40 nM | < 3 µg/mL | 22% | 3.7 | – | Cc1ccc(-c2ccc(OCC(=O)Cn3ccc4cc(C(=O)O)ccc43)cc2)cc1 |
| > 1000 nM | < 3 µg/mL | 33% | – | 16% | Cc1cc(-c2ccccc2)ccc1OCC(=O)Cn1ccc2cc(C(=O)O)ccc21 |
| 19 nM | < 3 µg/mL | 57% | 4 | – | O=C(COc1ccc(Oc2ccc(C(F)(F)F)cc2)cc1)Cn1ccc2cc(C(=O)O)ccc21 |
| 47 nM | 25 µg/mL (≈ 58.5 µM) | 0% | 4.1 | – | CC(C)(c1ccccc1)c1ccc(OCC(=O)Cn2ccc3cc(C(=O)O)ccc32)cc1 |
| 150 nM | < 3 µg/mL | 33% | 2.4 | – | NC(=O)c1ccc2c(ccn2CC(=O)COc2ccc(-c3ccccc3)cc2)c1 |
| 54 nM | 18 µg/mL (≈ 45.1 µM) | 7% | 3.3 | – | O=C(COc1ccc(Cc2ccccc2)cc1)Cn1ccc2cc(C(=O)O)ccc21 |
| 32 nM | < 3 µg/mL | 57% | 5.2 | – | CCCCCCCOc1ccc(OCC(=O)Cn2ccc3cc(C(=O)O)ccc32)cc1 |
| > 1000 nM | < 3 µg/mL | 61% | 3.7 | 29% | O=C(COc1ccc(-c2ccccc2)cc1Cl)Cn1ccc2cc(C(=O)O)ccc21 |
| 41 nM | < 3 µg/mL | 22% | 3.2 | – | O=C(COc1ccc(-c2cccc(F)c2)cc1)Cn1ccc2cc(C(=O)O)ccc21 |
| – | 21 µg/mL (≈ 54.5 µM) | 81% | 3.1 | inactive | O=C(COc1ccccc1-c1ccccc1)Cn1ccc2cc(C(=O)O)ccc21 |
| 64 nM | 5 µg/mL (≈ 13 µM) | 7% | 3.2 | – | O=C(COc1ccc(-c2ccccc2)cc1)Cn1ccc2cc(C(=O)O)ccc21 |
| 37 nM | < 3 µg/mL | 14% | 3.2 | – | O=C(COc1ccc(-c2ccc(F)cc2)cc1)Cn1ccc2cc(C(=O)O)ccc21 |
| 35 nM | < 3 µg/mL | 40% | 4.7 | – | CC(C)c1ccc(-c2ccc(OCC(=O)Cn3ccc4cc(C(=O)O)ccc43)cc2)cc1 |
| 110 nM | 31 µg/mL (≈ 69.6 µM) | 21% | 3.1 | – | O=C(COc1ccc(OCCOc2ccccc2)cc1)Cn1ccc2cc(C(=O)O)ccc21 |
| 250 nM | < 3 µg/mL | 15% | 2.3 | – | NC(=O)c1ccc2c(ccn2CC(=O)COc2cccc(-c3ccccc3)c2)c1 |
